Values after ≈ are worked out from the molar mass of the structure shown. Where a SMILES comes first, the peptide text is derived from it. Bridges are numbered along the chain shown (N, C = ends). [ ]: non-standard residue; d: D form. The star is where a group is joined. Octanoyl = CCCCCCCC(=O)*; Dab = NCC[C@H](N)C(=O)O; Abu = CC[C@H](N)C(=O)O
Key:
[1] = tested on: S. marcescens ATCC 8100; settings: ATCC 8100
Description: (§1) Polymyxin B sulfate (Sigma-Aldrich, St. Louis, Mo., USA) was used as a control. […] The bacterial test strains originated from ATCC (10 strains), CCUG (11 strains), and NCTC (3 strains). Fourteen (14) strains (the F-strains) were purchased from Mobidiag Ltd., Helsinki, Finland.
(§2) The inocula were prepared by adjusting the bacterial suspensions to a density equivalent to OD546 nm˜0.3 (˜10^8 CFU/ml˜0.5 McFarland) the yeast suspension to a density equivalent to OD546 nm˜0.75 (˜2×10^7 CFU/ml)._The suspensions were diluted to 10^7 CFU/ml. The plates were inoculated by using a Denley Multipoint Inoculator, 1 μl per spot corresponding to approx. 10^4 CFU/spot. Plates were incubated for 16-20 hours at 35° C.

[2] = tested on: A. baumannii ATCC 19606; settings: ATCC 19606
Description: as §1, §2

[3] = tested on: E. coli CCUG 41427; settings: CCUG 41427
Description: as §1, §2

[4] = tested on: E. coli ATCC 25922; settings: ATCC 25922
Description: as §1, §2

[5] = tested on: P. aeruginosa CCUG 51971
Description: as §1, §2

[6] = tested on: E. cloacae F230; settings: F230
Description: as §1, §2

[7] = tested on: E. cloacae ATCC 23355; settings: ATCC 23355
Description: as §1, §2

[8] = tested on: P. aeruginosa ATCC 27853; settings: ATCC 27853
Description: as §1, §2

[9] = tested on: E. coli F19; settings: F19
Description: as §1, §2

[10] = tested on: K. oxytoca ATCC 13182; settings: ATCC 13182
Description: as §1, §2

[11] = tested on: C. freundii ATCC 8090; settings: ATCC 8090
Description: as §1, §2

[12] = tested on: K. pneumoniae F145; settings: F145
Description: as §1, §2

[13] = tested on: E. coli NCTC 13352; settings: NCTC 13352
Description: as §1, §2

[14] = tested on: K. oxytoca CCUG 51683; settings: CCUG 51683
Description: as §1, §2

[15] = tested on: E. coli NCTC 13351; settings: NCTC 13351
Description: as §1, §2

[16] = tested on: E. coli F8; settings: F8
Description: as §1, §2

[17] = tested on: E. cloacae CCUG 52947; settings: CCUG 52947
Description: as §1, §2

[18] = tested on: C. albicans ATCC 28366; settings: ATCC 28366
Description: as §1, §2

[19] = tested on: E. cloacae F232; settings: F232
Description: as §1, §2

[20] = tested on: E. coli CCUG 41429; settings: CCUG 41429
Description: as §1, §2

[21] = tested on: E. coli CCUG 41422
Description: as §1, §2

[22] = tested on: P. aeruginosa F58; settings: F58
Description: as §1, §2

[23] = tested on: E. cloacae F231; settings: F231
Description: as §1, §2

[24] = tested on: E. coli F9; settings: F9
Description: as §1, §2

[25] = tested on: K. pneumoniae ATCC 13883; settings: ATCC 13883
Description: as §1, §2

[26] = tested on: E. coli CCUG 41425; settings: CCUG 41425
Description: as §1, §2

[27] = tested on: K. pneumoniae F144; settings: F144
Description: as §1, §2

[28] = tested on: A. baumannii F264; settings: F264
Description: as §1, §2

[29] = tested on: E. coli CCUG 41424; settings: CCUG 41424
Description: as §1, §2

[30] = tested on: E. coli F10; settings: F10
Description: as §1, §2

[31] = tested on: S. maltophilia ATCC 17444; settings: ATCC 17444
Description: as §1, §2

[32] = tested on: K. pneumoniae CCUG 45421; settings: CCUG 45421
Description: as §1, §2

[33] = tested on: E. coli IH3080; settings: IH3080
Description: as §1, §2

[34] = tested on: E. coli CCUG 41432; settings: CCUG 41432
Description: as §1, §2

[35] = tested on: K. pneumoniae F136; settings: F136
Description: as §1, §2

[36] = tested on: S. aureus ATCC 25923; settings: ATCC 25923
Description: as §1, §2

[37] = tested on: A. baumannii F263; settings: F263
Description: as §1, §2

[38] = tested on: E. coli NCTC 13353; settings: NCTC 13353
Description: as §1, §2

[39] = tested on: A. baumannii ATCC 19606; experiment: Sensitization to rifampin: growth inhibition around wells on LB plates containing rifampin; assay type: cell-based, Acinetobacter baumannii; settings: 4 μg

`CCCCCCCC(=O)N[C@H](C(=O)N[C@@H](CC)C(=O)N[C@H]1CCNC(=O)[C@H]([C@@H](C)O)NC(=O)[C@H](CCN)NC(=O)[C@H](CCN)NC(=O)[C@H](CC(C)C)NC(=O)[C@@H](Cc2ccccc2)NC(=O)[C@H](CCN)NC1=O)[C@@H](C)O` [NAB 7061, OA-Thr-Abu-cy[Dab-Dab-DPhe-Leu-Dab-Dab-Thr-]] (Octanoyl-T[Abu][Dab][Dab][dF]L[Dab][Dab]T; lactam 3-C) was tested, and the MIC [1] was >32 µg/mL, the MIC [2] was >32 µg/mL and the MIC [3] was >32 µg/mL. The MIC [4] was >32 µg/mL, the MIC [5] was >32 µg/mL and the MIC [6] was >32 µg/mL. The MIC [7] was 32 µg/mL (≈ 29.8 µM), the MIC [8] was >32 µg/mL and the MIC [9] was 32 µg/mL (≈ 29.8 µM). The MIC [10] was 32 µg/mL (≈ 29.8 µM), the MIC [11] was 16 µg/mL (≈ 14.9 µM) and the MIC [12] was >32 µg/mL. For the same compound, the MIC [13] was 32 µg/mL (≈ 29.8 µM), the MIC [14] was 32 µg/mL (≈ 29.8 µM) and the MIC [15] was >32 µg/mL. For the same compound, the MIC [16] was >32 µg/mL, the MIC [17] was >32 µg/mL and the MIC [18] was >32 µg/mL. For the same compound, the MIC [19] was >32 µg/mL, the MIC [20] was 16 µg/mL (≈ 14.9 µM) and the MIC [21] was >32 µg/mL. The MIC [22] was >32 µg/mL, the MIC [23] was 32 µg/mL (≈ 29.8 µM) and the MIC [24] was >32 µg/mL. For the same compound, the MIC [25] was >32 µg/mL, the MIC [26] was >32 µg/mL and the MIC [27] was >32 µg/mL. For the same compound, the MIC [28] was >32 µg/mL, the MIC [29] was 32 µg/mL (≈ 29.8 µM) and the MIC [30] was >32 µg/mL. For the same compound, the MIC [31] was >32 µg/mL, the MIC [32] was >32 µg/mL and the MIC [33] was >32 µg/mL. The MIC [34] was >32 µg/mL, the MIC [35] was >32 µg/mL and the MIC [36] was >32 µg/mL. The MIC [37] was >32 µg/mL, the MIC [38] was >32 µg/mL and the “growth inhibition around a well in the presence of rifampin” value ([39]; rifampin 0 μg/ml) was 0 square millimeters. For the same compound, the “growth inhibition around a well in the presence of rifampin” value ([39]; rifampin 0.3 μg/ml) was 50 square millimeters.
